# Source: paper PMC10194981, “Chemosensory protein regulates the behavioural response of Frankliniella intonsa and Frankliniella occidentalis to tomato zonate spot virus–Infected pepper (Capsicum annuum)” (PLOS Pathogens, 2023)
# Legend:
# [1] = test system: fall webworm moth (Hyphantria cunea) antennae; parameters: method as in PMID 23166622; settings: cited from earlier work
# Anagrus nilaparvatae = test system: Anagrus nilaparvatae; parameters: method as in PMID 31300659; settings: 1:20,000 dilution; cited from earlier work
# FoccCSP-Lys26Ala = FoccCSP-Lys26Ala (Frankliniella occidentalis, UniProt G4Y3X1, K26A); assay: Fluorescence (1-NPN) binding and competitive binding assay, FoccCSP mutant
# Description: (§1) The binding affinity of FintCSP1 and FoccCSP to the fluorescent probe N-phenyl-1-naphthylamine (1-NPN) was tested using a Spectramax M2 fluorescence spectrometer (Molecular Devices, USA) as reported previously. Volatile compounds and 1-NPN were first dissolved to a concentration of 1 mM in HPLC-grade methanol and dissolved to their indicated final concentration (2–20 μM) to titrate 2 μM protein solutions resuspended in 50 mM Tris-HCl (pH 7.4). The 1-NPN/FintCSP1 or 1-NPN/FoccCSP mixture was excited at 280 nm, and the emission spectra were recorded at 415 nm. The binding constants (Kd) of FintCSP1 or FoccCSP to 1-NPN were calculated by Scatchard analysis using Prism 5 software (GraphPad, La Jolla, CA, USA). Assuming a protein activity of 100% and that the volatile compound binds to the protein in a 1:1 ratio at saturation, the dissociation constants (Ki) of FintCSP1 or FoccCSP for each ligand were calculated according to the IC50 (the concentration when the ligand replaces 50% of the probe) value of the volatile compounds. The Ki values were calculated according to the following equation: Ki = [IC50]/(1 + [1-NPN]/K1-NPN), where [1-NPN] is the free concentration of 1-NPN, and K1-NPN is the Kd of the 1-NPN/FintCSP1 or 1-NPN/FoccCSP.
# (§2) To verify the key amino acids of FintCSP1 and FoccCSP that bind to cis-3-hexenal, six amino acid residues of FintCSP1 were mutated (Lys26Ala, Phe27Ala, Thr28Ala, Glu67Ala, Ser84Ala, and the negative control residue Val132Ala) and nine amino acid residues of FoccCSP were mutated (Lys26Ala, Phe27Ala, Thr28Ala, Thr29Ala, Tyr31Ala, Asp64Ala, Glu67Ala, Gln87Ala, and the negative control residue Val132Ala) with the Fast Mutagenesis System Kit (Transgen Biotech, Beijing, China) using the pET-30a/FintCSP1 and pET-30a/FoccCSP plasmid DNA as template, respectively. Specific primers were designed using Primer Premier 5.0 according to the instructions of the Fast Mutagenesis System Kit (S1 Table). After validation by sequencing, each recombinant variant protein was produced and purified as described above, and their binding affinity to cis-3-hexenal was measured as described above.
# FoccCSP-Gln87Ala = FoccCSP-Gln87Ala (Frankliniella occidentalis, UniProt G4Y3X1, Q87A); assay: as above
# Description: as §1, §2
# FoccCSP-Tyr31Ala = FoccCSP-Tyr31Ala (Frankliniella occidentalis, UniProt G4Y3X1, Y31A); assay: as above
# Description: as §1, §2
# F. intonsa antennae = assay: Electroantennogram (EAG) assay; parameters: species or system Frankliniella intonsa
# Description: The FintCSP1, FintCSP2, FintOBP, FintOR, FoccCSP, and enhanced green fluorescent protein (EGFP) coding sequences were obtained from GenBank under accession numbers MT199111, MT211602, OK067245, MT211603, AEP27186.1, and U55761.1, respectively. Primers were designed using Primer Premier 5.0, and the T7 promoter sequence (5′-[…]-3′) was added to the 5′ end of each primer (S1 Table). DNA fragments containing T7 promoter sequences were amplified by PCR using pEASY-T1/target gene or pUC-EGFP (preserved in the laboratory) plasmid DNA as template. Then, a double-stranded RNA (dsRNA) was produced from each target gene using the HiScribe T7 Quick High Yield RNA Synthesis Kit (New England Biolabs) according to the manufacturer’s instructions. Six hundred 2-day-old female F. intonsa or two hundred 2-day-old female F. occidentalis adults were anesthetized using CO2 and microinjected with 40 nL (3 μg/μL) dsRNA (dsFintCSP1 dsFintCSP2, dsFintOBP, dsFintOR or dsFoccCSP or dsEGFP) using a CellTram Oil microinjector (Eppendorf, Hamburg, Germany). The injected thrips were kept on broad beans in an artificial climate incubator as described above and used in subsequent RNAi experiments. Three biological replicates were conducted for each treatment with each dsRNA.
# At 24 h after dsRNA injection, the electrophysiological responses of F. intonsa antennae to six volatile components (i.e., m-cymene, cis-3-hexenal, (+)-2-carene, trans-2-hexenal, α-phellandrene, and α-humulene) or F. occidentalis antennae to cis-3-hexenal were recorded using EAG. Antennae of female adult thrips were cut off at the base, and the distal terminus was carefully removed. The tested compounds were dissolved in liquid paraffin, with pure liquid paraffin used as a negative control. An Ag-AgCl2 glass electrode and Kaissling electrode solution were used in the experiment according to Tian et al.. The base of the antenna was inserted into the glass capillary filled with electrode solution at the end of the reference electrode; the top of the antenna was connected to the glass capillary at the end of the recording electrode to ensure no bubbles in the glass capillary. After successful connection, the antennae were stimulated with each chemical in the following order: liquid paraffin, volatile compounds, and liquid paraffin. Stimulus time was 0.2 s with each stimulus at 40 s intervals. At least 10 antennae were tested for each volatile compound. The EAG values to volatile compounds were calculated using the following equation: absolute value of EAG reaction = reaction value of the tested sample—average value of two control measurements.
# [2] = test system: OBP5 from Apolygus lucorum; parameters: method as in PMID 23665333; settings: cited from earlier work
# FoccCSP-Val132Ala = FoccCSP-Val132Ala (Frankliniella occidentalis, UniProt G4Y3X1, V132A); assay: Fluorescence (1-NPN) binding and competitive binding assay, FoccCSP mutant (negative control residue)
# Description: as §1, §2
# Sequence of FoccCSP-Tyr31Ala (G4Y3X1 entry or part of it Y31A): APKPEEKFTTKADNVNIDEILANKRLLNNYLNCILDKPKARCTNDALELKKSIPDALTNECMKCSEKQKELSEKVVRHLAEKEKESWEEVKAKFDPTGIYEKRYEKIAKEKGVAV
# Sequence of FoccCSP-Gln87Ala (G4Y3X1 entry or part of it Q87A): as the sequence (G4Y3X1 entry or part of it Y31A) above, with A12Y, Q68A counted along it
# Sequence of FoccCSP-Lys26Ala (G4Y3X1 entry or part of it K26A): as the sequence (G4Y3X1 entry or part of it Y31A) above, with K7A, A12Y counted along it
# Sequence of FoccCSP-Val132Ala (G4Y3X1 entry or part of it V132A): as the sequence (G4Y3X1 entry or part of it Y31A) above, with A12Y, V113A counted along it
smiles,measurement,setting,value
CC/C=C\CC=O [cis-3-hexenal],effect on antennal sensitivity to pheromones (in words),[1],raising the sensitivity
same,attraction of Anagrus nilaparvatae (in words),Anagrus nilaparvatae,attracts Anagrus nilaparvatae
same,IC50,FoccCSP-Lys26Ala,36 ± 0.79 µM
same,Ki,FoccCSP-Lys26Ala,32.6 ± 0.71 µM
same,binding affinity to cis-3-hexenal (in words),FoccCSP-Lys26Ala; FoccCSP-Lys26Ala compared to the wild-type protein,significantly decreased binding affinities
same,IC50,FoccCSP-Gln87Ala,47.47 ± 0.44 µM
same,Ki,FoccCSP-Gln87Ala,43.68 ± 0.41 µM
same,binding affinity to cis-3-hexenal (in words),FoccCSP-Gln87Ala; FoccCSP-Gln87Ala compared to the wild-type protein,significantly decreased binding affinities
same,IC50,FoccCSP-Tyr31Ala,43.9 ± 0.66 µM
same,Ki,FoccCSP-Tyr31Ala,37.4 ± 0.56 µM
same,binding affinity to cis-3-hexenal (in words),FoccCSP-Tyr31Ala; FoccCSP-Tyr31Ala compared to the wild-type protein,significantly decreased binding affinities
same,EAG peak amplitude,"F. intonsa antennae; 10 mg/L in liquid paraffin, excised F. intonsa antennae",–0.077 mV
same,EAG response of FintCSP1-silenced antennae (in words),"F. intonsa antennae; dsFintCSP1-injected compared to dsEGFP-injected F. intonsa, 24 h after injection",significantly lower response
same,binding to OBP5 (in words),[2],strongly binds
same,IC50,FoccCSP-Val132Ala,28.7 ± 0.12 µM
same,Ki,FoccCSP-Val132Ala,23.69 ± 0.1 µM
same,binding to cis-3-hexenal (in words),FoccCSP-Val132Ala; FoccCSP-Val132Ala compared to the wild-type protein,only a minor change in binding
